Laboratory results as given in ChEMBL document CHEMBL1156251, “Structure--activity relationships of polymyxin antibiotics” (J Med Chem, 2010).
In brackets after ≈: the same amount, converted by molar mass. Where a SMILES comes first, the peptide text is derived from it. Bridges are numbered along the chain shown (N, C = ends). [ ]: non-standard residue; d: D form. The star is where a group is joined. Octanoyl = CCCCCCCC(=O)*; Dab = NCC[C@H](N)C(=O)O; Abu = CC[C@H](N)C(=O)O

Assays:
[1] = tested on: Escherichia coli; test: Antimicrobial activity against Escherichia coli at 10 ug/mL; format: functional
[2] = target: Lipopolysaccharide (LPS); test: Displacement of dansyl-PMB from LPS by isothermal titration calorimetry; settings: read-out: IC50
[3] = tested on: Escherichia coli; test: Antimicrobial activity against Escherichia coli assessed as relative sensitizing activity; format: functional
[4] = tested on: Pseudomonas aeruginosa; test: Antimicrobial activity against Pseudomonas aeruginosa; format: functional, organism-based
[5] = tested on: Escherichia coli; test: Antimicrobial activity against Escherichia coli; format: functional
[6] = tested on: Lipopolysaccharide (LPS); test: Displacement of dansyl-PMB from LPS by fluorometric assay

| SMILES | MIC [4] [µg/mL] | MIC [5] [µg/mL] | dansyl-PMB displacement concentration [6] [µg/mL] | GI [1] [square millimeter] | IC50 [2] [µM] | Activity [3] [%] |
| --- | --- | --- | --- | --- | --- | --- |
| CCCCCCCC(=O)N[C@H](C(=O)N[C@@H](CC)C(=O)N[C@H]1CCNC(=O)[C@H]([C@@H](C)O)NC(=O)[C@H](CCN)NC(=O)[C@H](CCN)NC(=O)[C@H](CC(C)C)NC(=O)[C@@H](Cc2ccccc2)NC(=O)[C@H](CCN)NC1=O)[C@@H](C)O |  |  |  | 32 |  |  |
| CC(C)C[C@@H]1NC(=O)[C@@H](Cc2ccccc2)NC(=O)[C@H](CCN)NC(=O)[C@H](CCN)NC(=O)[C@H](NC(=O)[C@@H](N)[C@@H](C)O)CCNC(=O)[C@H]([C@@H](C)O)NC(=O)[C@H](CCN)NC(=O)[C@H](CCN)NC1=O |  |  |  |  | 8 | 7 |
| CCNCC[C@H](NC(=O)CCCCC(C)CC)C(=O)N[C@H](C(=O)N[C@@H](CCN)C(=O)N[C@H]1CCNC(=O)[C@H]([C@@H](C)O)NC(=O)[C@H](CCN)NC(=O)[C@H](CCN)NC(=O)[C@H](CC(C)C)NC(=O)[C@@H](Cc2ccccc2)NC(=O)[C@H](CCN)NC1=O)[C@@H](C)O (some centres not stated) | 0.146 (≈ 0.119 µM) | 0.112 (≈ 0.0909 µM) | 2.3 |  |  |  |
| CCCNCC[C@H](NC(=O)CCCCC(C)CC)C(=O)N[C@H](C(=O)N[C@@H](CCN)C(=O)N[C@H]1CCNC(=O)[C@H]([C@@H](C)O)NC(=O)[C@H](CCN)NC(=O)[C@H](CCN)NC(=O)[C@H](CC(C)C)NC(=O)[C@@H](Cc2ccccc2)NC(=O)[C@H](CCN)NC1=O)[C@@H](C)O (some centres not stated) | 0.206 (≈ 0.165 µM) | 0.208 (≈ 0.167 µM) | 2.4 |  |  |  |
| CCNCC[C@@H]1NC(=O)[C@H](CCN)NC(=O)[C@H](CC(C)C)NC(=O)[C@@H](Cc2ccccc2)NC(=O)[C@H](CCN)NC(=O)[C@@H](NC(=O)[C@H](CCN)NC(=O)[C@@H](NC(=O)[C@H](CCN)NC(=O)CCCCC(C)CC)[C@@H](C)O)CCNC(=O)[C@H]([C@@H](C)O)NC1=O (some centres not stated) | 0.413 (≈ 0.335 µM) | 0.492 (≈ 0.399 µM) | 9.5 |  |  |  |
| CCCNCC[C@@H]1NC(=O)[C@H](CCN)NC(=O)[C@H](CC(C)C)NC(=O)[C@@H](Cc2ccccc2)NC(=O)[C@H](CCN)NC(=O)[C@@H](NC(=O)[C@H](CCN)NC(=O)[C@@H](NC(=O)[C@H](CCN)NC(=O)CCCCC(C)CC)[C@@H](C)O)CCNC(=O)[C@H]([C@@H](C)O)NC1=O (some centres not stated) | 0.763 (≈ 0.613 µM) | 0.995 (≈ 0.799 µM) | 9.5 |  |  |  |
| CCCCCCCC(=O)N[C@H](C(=O)N[C@@H](CO)C(=O)N[C@H]1CCNC(=O)[C@H]([C@@H](C)O)NC(=O)[C@H](CCN)NC(=O)[C@H](CCN)NC(=O)[C@H](CC(C)C)NC(=O)[C@@H](Cc2ccccc2)NC(=O)[C@H](CCN)NC1=O)[C@@H](C)O (Octanoyl-TS[Dab][Dab][dF]L[Dab][Dab]T; lactam 3-C) |  |  |  | 171 |  |  |
| CCCCCCCC(=O)N[C@H](C(=O)N[C@@H](CC)C(=O)N[C@H]1CCNC(=O)[C@H]([C@@H](C)O)NC(=O)[C@H](CCN)NC(=O)[C@H](CCN)NC(=O)[C@H](CC(C)C)NC(=O)[C@H](CC(C)C)NC(=O)[C@H](CCN)NC1=O)[C@@H](C)O (Octanoyl-T[Abu][Dab][Dab]LL[Dab][Dab]T; lactam 3-C) |  |  |  | 0 |  |  |
| CCCCCCCC(=O)N[C@H](C(=O)N[C@@H](CC)C(=O)N[C@H]1CCNC(=O)[C@H](CC(C)C)NC(=O)[C@H](CCN)NC(=O)[C@H](CCN)NC(=O)[C@H](CC(C)C)NC(=O)[C@@H](Cc2ccccc2)NC(=O)[C@H](CCN)NC1=O)[C@@H](C)O (Octanoyl-T[Abu][Dab][Dab][dF]L[Dab][Dab]L; lactam 3-C) |  |  |  | 50 |  |  |
| CC(C)C[C@@H]1NC(=O)[C@@H](Cc2ccccc2)NC(=O)[C@H](CCN)NC(=O)[C@@H](NC(=O)[C@H](CCN)NC(=O)[C@@H](N)[C@@H](C)O)CCNC(=O)[C@H]([C@@H](C)O)NC(=O)[C@H](CCN)NC(=O)[C@H](CCN)NC1=O (stereo in doubt; 202) [POLYMYXIN B NONAPEPTIDE] |  |  |  |  | 8 | 5 |

Further lines, with some results ahead:

| MIC [4] [µg/mL] | MIC [5] [µg/mL] | dansyl-PMB displacement concentration [6] [µg/mL] | SMILES | GI [1] [square millimeter] | IC50 [2] [µM] | Activity [3] [%] |
| --- | --- | --- | --- | --- | --- | --- |
| 0.175 (≈ 0.119 µM) | 0.206 (≈ 0.141 µM) | 1.12 | CCC(C)CCCCC(=O)N[C@@H](CCNC(=O)C(N)CCCCNC(=O)OCc1ccccc1)C(=O)N[C@H](C(=O)N[C@@H](CCN)C(=O)N[C@H]1CCNC(=O)[C@H]([C@@H](C)O)NC(=O)[C@H](CCN)NC(=O)[C@H](CCN)NC(=O)[C@H](CC(C)C)NC(=O)[C@@H](Cc2ccccc2)NC(=O)[C@H](CCN)NC1=O)[C@@H](C)O (some centres not stated) |  |  |  |
| 0.207 (≈ 0.152 µM) | 0.453 (≈ 0.333 µM) | 4.48 | CCC(C)CCCCC(=O)N[C@@H](CCNC(=O)C(N)CCCNC(=N)N)C(=O)N[C@H](C(=O)N[C@@H](CCN)C(=O)N[C@H]1CCNC(=O)[C@H]([C@@H](C)O)NC(=O)[C@H](CCN)NC(=O)[C@H](CCN)NC(=O)[C@H](CC(C)C)NC(=O)[C@@H](Cc2ccccc2)NC(=O)[C@H](CCN)NC1=O)[C@@H](C)O (some centres not stated) |  |  |  |
| 2.8 (≈ 2.25 µM) | 1.3 (≈ 1.04 µM) | 2.8 | CCC(C)CCCCC(=O)N[C@@H](CCNC(C)=O)C(=O)N[C@H](C(=O)N[C@@H](CCN)C(=O)N[C@H]1CCNC(=O)[C@H]([C@@H](C)O)NC(=O)[C@H](CCN)NC(=O)[C@H](CCN)NC(=O)[C@H](CC(C)C)NC(=O)[C@@H](Cc2ccccc2)NC(=O)[C@H](CCN)NC1=O)[C@@H](C)O (some centres not stated) |  |  |  |
| 0.033 (≈ 0.0262 µM) | 0.028 (≈ 0.0222 µM) | 8 | CCC(C)CCCCC(=O)N[C@@H](CCNC(=O)CN)C(=O)N[C@H](C(=O)N[C@@H](CCN)C(=O)N[C@H]1CCNC(=O)[C@H]([C@@H](C)O)NC(=O)[C@H](CCN)NC(=O)[C@H](CCN)NC(=O)[C@H](CC(C)C)NC(=O)[C@@H](Cc2ccccc2)NC(=O)[C@H](CCN)NC1=O)[C@@H](C)O (some centres not stated) |  |  |  |
